# A melting point compilation (Tetko et al.; mined from patent text by program, amines drawn as free bases though some values may be those of a salt)
# Residues, ends and D or L forms follow the SMILES beside them. *: point of attachment. Boc = CC(C)(C)OC(=O)*
row,Compound,melting point
1,OC1(C(c2ccccc2F)n2cccc2)CCN(Cc2ccccc2)C1 (configuration not stated),87 to 89 °C
2,CC1CCC2(C)C(=CCC3C4CC(Br)C(=O)C4(C)CCC32)C1 (configuration not stated),186 to 188 °C
3,CCOC(=O)OC1=C(c2cc(C)ccc2C)C(=O)NC1CC1CCS(=O)CC1 (configuration not stated),103 to 106 °C
4,CCOC(=O)c1cc2c(=O)n(C3CCCC3)c3ccccc3n2c1,183 to 185 °C
5,O=C(O)c1ccc2nc(-c3ccc(C(=O)NC4CCCCC4)cc3)[nH]c2c1,334 to 337 °C
6,CCOC(=O)C(Cl)=NO,75 to 80 °C
7,Cn1ncc2c(c1=O)SCCNC2C(=O)c1ccc([N+](=O)[O-])cc1 (configuration not stated),230 to 232 °C
8,Cc1ccc(S(=O)(=O)NCc2ccc(C(=O)CBr)cc2)cc1,116 to 117 °C
9,COc1ccc(-n2nc(Sc3ccc(C(C)C)cc3)c(C)c(C#N)c2=O)cc1,141 to 144 °C
10,CCNc1cccnc1N1CCN(C(=O)c2ccc(C(=O)O)cc2)CC1,208 to 209 °C
11,O=C(CNC(=O)C(Cc1ccc(OCc2ccccc2)cc1)NC(=O)OCc1ccccc1)Nc1n[nH]c(=S)s1 (configuration not stated),201 to 202 °C
12,CC(C(=O)O)c1ccc(C=C2CCCC2=O)cc1 (configuration not stated),106 to 107 °C
13,CCOC(=O)c1c(Cl)nc(-c2ccccc2)c([N+](=O)[O-])c1C(=O)OCC,65 to 66 °C
14,O=C1CC[C@@H]2CCc3ccccc3[C@@H]2CN1Cc1ccccc1 (relative stereo),114 to 115 °C
15,O=C1N(CCCO)c2ccccc2C12COc1cc3c(cc12)OCCO3 (configuration not stated),157 to 158 °C
16,NC(=Nc1ccc(CNC(=O)CCCCC2CCSS2)cc1)c1cccs1 (configuration not stated),152 °C
17,Cc1cc2c(=O)n(CCN(Cc3ccc4c(c3)NC(=O)C(C)(C)C(=O)N4CC3CC3)Cc3cccnc3C)ccc2o1,138 to 143 °C
18,CC(=O)c1cccc(-c2ncccc2OC2SCC(O)C(O)C2O)c1 (configuration not stated),128 to 133 °C
19,COc1ccc(Sc2sccc2C=O)cc1,58 to 60 °C
20,c1ccc2c3c([nH]c2c1)CCCSCC3,106 to 107 °C
21,CCOC(=O)Cc1csc(NS(C)(=O)=O)n1,207 to 208 °C
22,CCCCc1ncc(CC(Cc2ccccc2)C(=O)O)n1Cc1ccccc1Cl (configuration not stated),118 to 120 °C
23,N#Cc1cccc2[nH]c(C(=O)O)cc(=O)c12,278 to 279 °C
24,Cc1cc(OCC(F)(F)F)c([N+](=O)[O-])c(OCC(F)(F)F)n1,72.8 to 73.2 °C
25,CC(C)N1C(=O)c2ccccc2N(C(=O)C(C)(C)C)S1(=O)=O,97.5 to 99.5 °C

row,Compound,melting point
1,CN1CCN(c2ccc(F)cc2C=C2CCCN(c3ccc(Cl)c(Cl)c3)C2=O)CC1,161 to 162 °C
2,CCOP(=O)(OCC)c1cnc2ccc(C(F)(F)F)cc2c1,69 °C
3,CC=CN(C=CC)c1ccc2[nH]c3cnc(-c4nc(CC)no4)cc3c2c1,151 to 156 °C
4,COC(=O)C1NC(c2ccc(Cl)cc2)C/C(=N\OS(C)(=O)=O)C1(Cl)Cl (configuration not stated),60 to 62 °C
5,N#CC1(Nc2ccccc2)CCN(C2CCCc3ccccc32)CC1 (configuration not stated),152 to 153 °C
6,Oc1ccc2c(c1)CCc1c-2cc2ccc(O)cc2c1C1CCCC1,233 to 235 °C
7,CC1=Nc2ccccc2CC(c2ccc(C)s2)N1C (configuration not stated),139 to 140 °C
8,COc1ccccc1C(=O)c1ccc(Cl)nc1,46 to 47 °C
9,CSC1=NCC2CN=C(c3ccccc3F)c3cc(Cl)ccc3N12 (configuration not stated),163 to 165 °C
10,COC(=O)[C@H]1CC[C@H](c2[nH]nc3c2C(=O)c2c(NC(=O)NN4CCOCC4)cccc2-3)CC1,259 to 261 °C
11,CCCCCCCCCCCCCCCCCCOCC(COP(=O)([O-])OCC[N+](C)(C)C)Oc1ccon1 (racemic),115 to 125 °C
12,C=CCn1c2c(c3cc(OCc4ccc5ccccc5n4)ccc31)CCCC2CC(=O)O (configuration not stated),150 °C
13,CCOC(=O)c1nnc2n1-c1sc(CC)cc1C(c1ccccc1Cl)=NC2,138 to 140 °C
14,N#CC=Cc1ccc(C=Cc2ccc(C=CC#N)cc2)cc1,219 to 221 °C
15,O=C(c1ccccc1)N1C=CC(c2c(-c3ccc(F)cc3)nc3n2CCS3)C=C1,188 to 189 °C
16,O=C(Nc1cccnc1)c1cccc(-c2ccc3c(c2)C(Oc2ccc(Cl)cc2Cl)CC3)c1 (configuration not stated),188 to 189 °C
17,Cn1c(C(F)(F)F)cc(=O)n(-c2ccc(O)cc2F)c1=O,185 to 190 °C
18,ON=Cc1cn(C(c2ccccc2)(c2ccccc2)c2ccccc2)c(F)n1,147 to 149 °C
19,O=C(c1ccccc1)N1CCc2[nH]c3c(-c4ccccc4)cccc3c2CC1,198 to 200 °C
20,CN(C)CCNc1ccc(CNS(C)(=O)=O)c2sc3ccccc3c(=O)c12,126 to 127 °C
21,COc1ccc(-c2nnc(C(=O)N3CC(Oc4ccc(CN5CCC(C)(CO)CC5)cc4)C3)o2)cc1,102 °C
22,COc1ccc(CN2C(=O)C3(COc4cc5c(cc43)CCO5)c3c2ccc2ncccc32)cc1 (configuration not stated),169 to 170 °C
23,CC(C)c1ccc([N+](=O)[O-])c(C(C)C)c1NC(=O)CN1CCN(CCSc2nc3cccc([N+](=O)[O-])c3o2)CC1,70 to 72 °C
24,C=C(C(=O)c1ccc(Cl)cc1)c1ccc(Cl)cc1Cl,90 to 93 °C
25,CN(C)C=CC(=O)c1cccc(N(C)C(=O)C2CC2)c1,120 to 122 °C

row,Compound,melting point
1,O=CNNc1ccnc2c(NC(=O)c3c(Cl)cccc3Cl)cccc12,261 to 263 °C
2,CCOC(=O)N1C=CC(c2c(-c3cccs3)nc3ccc(N4CCN(C(=O)OC(C)(C)C)CC4)nn23)C=C1,155 °C
3,CCC(C)(C)OC(=O)NC(C)(Cc1c[nH]c2ccccc12)C(=O)NCCc1ccccn1 (configuration not stated),151 to 152 °C
4,CCCCCCCCCCOc1cc(OCCCCCCCCCC)cc(N(CC(=O)OC)CC(=O)OC)c1,36 to 38 °C
5,CCC(CC)N(Cc1ccc(C(=O)OC)cc1)S(=O)(=O)c1ccc(C)cc1,106 to 108 °C
6,COC(=O)C(C)(C)C(=O)OCOC1=C(C(=O)Nc2ccccn2)N(C)S(=O)(=O)c2ccccc21,112 to 114 °C
7,CN(C)S(=O)(=O)Cc1ccccc1S(N)(=O)=O,145 to 150 °C
8,CC(=O)CCC(C)C1CC=C2C3=C(CCC21C)C1(C)CCC(O)C(C)(C)C1CC3 (configuration not stated),183 to 185 °C
9,O=c1[nH]c2ccc(F)cc2c(=O)o1,240 °C
10,CON=C(C(=O)N(C)C)C(C)=NOCc1ccc(C)cc1,68 to 69 °C
11,O=C(N[C@H]1CC[C@H](CCN2CCN(c3nccc4c3OCC4)CC2)CC1)C1CCC1,186 °C
12,Cc1nc2cc(-c3ccco3)ccc2o1,60 °C
13,Cc1c(-c2ccc(Cl)cc2)nn(C)c1C(F)(F)F,87 to 88.5 °C
14,OCC12CO[C@@H](c3ccc(F)cc3)N1[C@H](c1ccc(F)cc1)OC2,115 °C
15,COC(=O)C(Cc1ccccc1)NC(=O)C(Cc1ccccc1)NC(=O)C(CC(N)=O)NC(=O)CNC(=O)OC(C)(C)C (configuration not stated) (Boc-GNFF-OMe; configuration not given here),211 to 214 °C
16,Cc1cn(C(C)(C)C(=O)N(C)C)nc1-c1cccs1,116 to 119 °C
17,CCOCC1COc2cc3c(Cl)c(C(=O)OCC)cnc3cc2O1 (configuration not stated),106 to 108 °C
18,NC(=O)CCc1ccc([N+](=O)[O-])cc1,177 to 178 °C
19,C=CCc1c(O)cc(C)c2ccc(=O)oc12,177 °C
20,O=c1[nH]c2cc(Cl)ccc2c(=O)n1S(=O)(=O)c1ccccc1Cl,275 to 276 °C
21,CC(C)C(=O)Nc1nn(C)c2c1sc1c(Cl)cccc12,218 to 219 °C
22,CN(C)C(=O)Cn1c(-c2cccc(Br)c2)nc2cccnc21,144 to 146 °C
23,CS(=O)(=O)c1ccc(-c2[nH]c3ccc(F)cc3c2-c2ccccc2)cc1,243 to 245 °C
24,COC(=O)c1ccc(COc2cccc(-c3c(C(=O)c4ccccc4)cnc4c(C(F)(F)F)cccc34)c2)c(OC)c1,60 to 63 °C
25,CCCCN(CCCC)c1ccc(C=CC2=C(C#N)C(=C(C#N)C#N)OC2(c2ccccc2)C(F)(F)F)c(OC)c1 (configuration not stated),191 to 194 °C

row,Compound,melting point
1,Clc1ccc2c(c1)ncc1ncsc12,199 to 200 °C
2,O=C(O)Cc1ccc(NC(=O)C=C2CC(C(=O)O)Nc3cc(Cl)cc(Cl)c32)cc1 (racemic),> 220 °C
3,O=C1Nc2cccc(Cl)c2C12COc1cc3c(cc12)CCO3 (configuration not stated),> 200 °C
4,O=c1c2c(Cc3ccccc3OC(F)(F)F)n[nH]c2c2cccnc2n1-c1cccc(OC(F)(F)F)c1,233 to 236 °C
5,CCn1ncc2c1ncc1c(Nc3cccc(C(F)(F)F)c3)nc3cc(C)nn3c12,205 to 206 °C
6,O=Cc1c2ccccc2cc2c(C=O)c3ccccc3cc12,247 to 250 °C
7,CCOC(=O)C(=O)N(c1ccccc1)c1ccc(OC)cc1OC,142 to 144 °C
8,CC(=O)N(C1(c2ccc(OCc3ccc4ccccc4n3)cc2)CCCC1)S(=O)(=O)c1ccccc1C,80 °C
9,O=c1cc(-c2ccncn2)nc2n1CCCN2,268 to 272 °C
10,CCCNC(=O)NS(=O)(=O)c1ccccc1Br,218 to 219 °C
11,CCCCOc1ccc(C(=O)Nc2ccc3cc(CN4CCN(C)CC4)cnc3c2C)cc1,145 °C
12,COC(=O)c1c(C)nc2c(c1N)c1cc(Cl)ccc1n2C,203 to 211 °C
13,COc1ccc2[nH]c(SCc3nccc(N4CCCC4)c3Cl)nc2c1,131 to 133 °C
14,CCc1ccc(OCc2ccc(CO)c(CO)c2)cc1-c1ccc(C(O)(CC)CC)cc1C(C)C,109 °C
15,CC(C)(C)OC(=O)c1ncn2c1[C@@H]1CCN1C(=O)c1c(I)cccc1-2,249 to 250 °C
16,CCOC(=O)C1(NC(=O)c2ccc3c(Cl)cnc(Cl)c3c2)CCCC1,178 to 180 °C
17,CC[C@@H](C)[C@H](CC(C(=O)O)C(=O)O)C(=O)OC,98 °C
18,C=CCOC(=O)/C=C/c1c[nH]c2ccc(OCc3ccccc3)cc12,73 to 77 °C
19,COc1cc2nc(-c3cc(C)c(OCCO)c(C)c3)[nH]c(=O)c2cc1OC,> 300 °C
20,CNC(=O)N(O)Cc1ccoc1,129 to 131 °C
21,Oc1ccc2c(c1)COc1c-2cc2ccc(O)cc2c1-c1cccc(C(F)(F)F)c1,228 to 231 °C
22,COC(=O)c1ccc(COc2ccc3cc(-c4ccc(-c5ccccc5)n4-c4ccccc4)ccc3c2)cc1,218 to 219 °C
